Tested on: CYP3A4
Assay: CYP3A4 induction assay (CYP 3A4 mRNA by qPCR in cryopreserved human hepatocytes)
Assay type: in vitro ADME
Conditions: 10 μM compound; for CYP3A4 Ind. (%): value in brackets: induction relative to prototypical inducer rifampicin = 100%
Method: CYP induction was evaluated in vitro by determining the expression levels of CYP 3A4 mRNA using the qPCR (quantitative polymerase chain reaction) assay. On day one, cryopreserved human hepatocytes were thawed in prewarmed (37° C.) thawing medium (cryopreserved hepatocyte recovery medium, Gibco™ CM 7000; Thermo Fisher Scientific), centrifuged (1000 g for 10 minutes) and resuspended in plating medium (Gibco™ CM3000—Williams Medium E supplemented with hepatocytes plating supplement pak-serum containing; Thermo Fisher Scientific). Cells were counted by trypan blue exclusion using a hemocytometer and adjusted to a cell density of […]. Thereafter, […] of cell suspension was aliquoted per well in a 96-well plate, resulting in 60,000 cells/well. Plates were shaken in the north-south and east-west direction during plating. Plated cells were incubated at 37° C./5% CO2 in a humidified cell culture incubator for 4-6 hours. During this time, incubation medium (Gibco™ CM4000, cell maintenance supplement pack; Thermo Fisher Scientific) was mixed with Gibco™ Geltrex™ (Thermo Fischer Scientific) at the appropriate Geltrex™ protein concentration. Following recovery, medium was removed from cells and replaced with freshly prepared incubation medium. Cells were incubated overnight in a cell culture incubator (37° C./5% CO2).
The next day the incubation medium was prepared by combining the hepatocyte maintenance supplement pack with Williams medium E. The medium was warmed to 37° C. 1000× dimethyl sulfoxide compound stocks were prepared to the desired concentrations. 10 mM compound stocks in dimethyl sulfoxide were diluted (1 μL to 1 mL CM4000; final concentration=10 μM). Overlay medium was aspirated and […] dose solution added to the desired labeled 96 well plate. Cells were returned to the humidified incubator overnight (37° C./5% CO2).
On day 3, incubation medium was warmed to 37° C., and the same process for compound preparation repeated as in day 2, i.e. 1000× dimethyl sulfoxide compound stocks were prepared to the desired concentration, diluted (1:1000) in warm incubation medium, and this freshly prepared medium was used to replace treatment medium. Cells were returned to the humidified incubator (37° C./5% CO2) overnight.
On day 4, RNA isolation was performed. Prior to RNA isolation, cell viability was assessed using presto blue reagent. 10× dilution of PrestoBlue™ reagent (Thermo Fisher Scientific) was prepared by mixing 1.4 mL PrestoBlue™ with 12.6 mL incubation medium. Medium was aspirated from cells, and 100 μL of cell viability medium (10× dilution of PrestoBlue™ reagent) added and incubated for 17 minutes. Cell viability was determined by measuring absorbance using a microplate reader (Spark® 10M Tecan Life Sciences). After this measurement, media was aspirated using a multichannel aspirator and a glass pipet to completely aspirate from each well. Plates were stored or immediately used for mRNA isolation. All surfaces were cleaned using RNase away. 2× Lysis buffer was well mixed after incubation at ambient temperature. Fresh lysis buffer was prepared by mixing 0.125 μL of 0.5 mM DTT with 4.875 μL 2× lysis buffer. 1× lysis buffer containing DTT was then prepared by adding 5 μL dilution buffer to the 2× lysis buffer and mixing thoroughly. Thereafter, cell lysates were prepared by adding 1× lysis buffer to each sample well (96-well plate). Samples were incubated for 3-6 minutes at ambient temperature while shaking (350-400 rpm) to lyse the cells. Cells were scrapped with tips, and cell lysate (80 μL) was transferred to each well of the mRNA Catcher PLUS™ plate (Thermo Fisher Scientific). mRNA Catcher PLUS™ plate containing samples was covered with adhesive plastic film plate cover and incubated at ambient temperature for 45-60 minutes for RNA hybridization.
After hybridization, lysate was aspirated from the cells. […]

CYP3A4 Ind. (%) | CYP3A4 Ind. fold (CYP3A4 mRNA fold change vs vehicle) | Compound
125% |  | C=CC(=O)N1CCC([C@@H]2CCNc3c(C(N)=O)c(-c4ccc(Oc5ccccc5)cc4)nn32)CC1 [Compound A, reference compound]
−1.3% | 0.9 fold | C=CC(=O)N1CCN([C@@H]2CCNc3c2nn(-c2ccc(Oc4ccccc4)cc2)c3C(N)=O)CC1 [Example 6, (7R)-2-(4-phenoxyphenyl)-7-[4-(prop-2-enoyl)piperazin-1-yl]-4,5,6,7-tetrahydro-2H-pyrazolo[4,3-b]pyridine-3-carboxamide]

Source: patent publication US20220213092A1, “BICYCLIC PYRAZOLE BRUTON'S TYROSINE KINASE INHIBITORS” (AbbVie Inc., priority 2020, published 2022)
